Test results reported in ChEMBL document CHEMBL5543059, “Discovery of anti-inflammatory natural flavonoids: Diverse scaffolds and promising leads for drug discovery” (Eur J Med Chem, 2023).
Values after ≈ are worked out from the molar mass of the structure shown. One block for each compound: values may come before it.

Key:
RAW264.7 [1] = experiment: Antiinflammatory activity in mouse RAW264.7 cells assessed as reduction in LPS-induced iNOS expression after 24 hrs by Western blot analysis; format: functional, cell-based; conditions: RAW264.7, 24 h
RAW264.7 [2] = experiment: Antiinflammatory activity in mouse RAW264.7 cells assessed as reduction in LPS-induced COX-2 expression after 24 hrs by Western blot analysis; format: functional, cell-based; conditions: RAW264.7, 24 h
BV-2 [3] = experiment: Antiinflammatory activity in mouse BV-2 cells assessed as reduction in LPS-induced NO production pre-treated with compound for 1 hr followed by stimulated with LPS for 18 hrs by 2,3-diaminonaphthalene reagent based fluorescence analysis; format: functional, cell-based
B16-F10 = experiment: Antiinflammatory activity in mouse B16-F10 cells assessed as decrease in LPS-induced TNFalpha expression by Western blot analysis; format: functional, cell-based
THP-1 = experiment: Antiinflammatory activity in human THP-1 cells assessed as decrease in LPS-induced TNFalpha expression by Western blot analysis; format: functional, cell-based
RAW264.7 [4] = experiment: Anti-inflammatory activity in mouse RAW264.7 cells assessed as inhibition of LPS-induced NO production by Griess reagent assay; format: functional, cell-based
RAW264.7 [5] = experiment: Antiinflammatory activity in mouse RAW264.7 cells assessed as reduction in iNOS protein expression at 5 to 40 uM relative to control; format: functional; design: scale not given: the % may be the effect or the level left; conditions: dose 5-40 µM
Neutrophil = experiment: Inhibition of fMLF/CB-induced human Neutrophil activation assessed as reduction in elastase release using MeO-Suc-Ala-Ala-Pro-Val-pnitroanilide as substrate incubated for 5 mins; format: functional, cell-based
Peritoneal macrophage [6] = experiment: Antiinflammatory activity in mouse peritoneal macrophages assessed as reduction in LPS-induced TNFalpha level at 20 uM incubated for 4 hrs by ELISA method relative to control; format: functional; design: scale not given: the % may be the effect or the level left
BV-2 [7] = experiment: Antiinflammatory activity in mouse BV-2 cells assessed as reduction in LPS-induced NO production incubated for 24 hrs by microplate reader analysis; format: functional, cell-based; conditions: BV-2, 24 h
BV-2 [8] = experiment: Anti-inflammatory activity in mouse BV-2 cells assessed as reduction in LPS-induced NO production pre-treated with compounds for 2 hrs followed by LPS-stimulation measured for 22 hrs by Griess reagent based analysis; format: functional, cell-based
Peritoneal macrophage [9] = experiment: Antiinflammatory activity against LPS-stimulated mouse peritoneal macrophage assessed as TNF-alpha level; format: functional, cell-based
Rattus norvegicus [10] = experiment: Antiinflammatory activity in LPS-induced Sprague-Dawley rat assessed as reduction in IL-1beta production in plasma at 20 mg/kg, ip pretreated for 30 mins followed by LPS induction measured after 4 hrs by ELISA method relative to control; format: functional; design: scale not given: the % may be the effect or the level left; conditions: time 4.5 hrs
Rattus norvegicus [11] = experiment: Antiinflammatory activity in LPS-induced Sprague-Dawley rat assessed as reduction in TNFalpha production in plasma at 20 mg/kg, ip pretreated for 30 mins followed by LPS induction measured after 4 hrs by ELISA method relative to control; format: functional; design: scale not given: the % may be the effect or the level left; conditions: time 4.5 hrs
RAW264.7 [12] = experiment: Antiinflammatory activity in LPS-induced mouse RAW264.7 cells assessed as reduction in TNFalpha production pretreated for 30 mins followed by LPS induction measured after 2 hrs by ELISA method; format: functional, cell-based
J774.A1 [13] = experiment: Antiinflammatory activity in LPS-induced mouse J774.A1 cells assessed as reduction in TNFalpha production pretreated for 30 mins followed by LPS induction measured after 2 hrs by ELISA method; format: functional, cell-based
RAW264.7 [14] = experiment: Antiinflammatory activity in LPS-induced mouse RAW264.7 cells assessed as reduction in IL-1beta production pretreated for 30 mins followed by LPS induction measured after 2 hrs by ELISA method; format: functional, cell-based
J774.A1 [15] = experiment: Antiinflammatory activity in LPS-induced mouse J774.A1 cells assessed as reduction in IL-1beta production pretreated for 30 mins followed by LPS induction measured after 2 hrs by ELISA method; format: functional, cell-based
BV-2 [16] = experiment: Anti-inflammatory activity against mouse BV-2 cells assessed as inhibition of LPS-induced IL-1beta secretion at 25 uM pretreated for 2 hrs followed stimulated with LPS for 22 hrs by ELISA analysis relative to control; format: functional; design: scale not given: the % may be the effect or the level left; conditions: time 24 hrs
RAW264.7 [17] = experiment: Anti-inflammatory activity in mouse RAW264.7 cells assessed as inhibition of LPS-induced TNFalpha production preincubated for 1 hr followed by LPS addition and measured after 24 hrs by ELISA; format: functional, cell-based
RAW264.7 [18] = experiment: Anti-inflammatory activity in mouse RAW264.7 cells assessed as inhibition of LPS-induced IL-6 production preincubated for 1 hr followed by LPS addition and measured after 24 hrs by ELISA; format: functional, cell-based
RAW264.7 [19] = experiment: Anti-inflammatory activity in mouse RAW264.7 cells assessed as inhibition of LPS-induced IL-1beta production preincubated for 1 hr followed by LPS addition and measured after 24 hrs by ELISA; format: functional, cell-based
RAW264.7 [20] = experiment: Anti-inflammatory activity against mouse RAW264.7 cells assessed as inhibition of LPS-induced IL-1beta mRNA expression level pretreated for 30 mins followed by LPS-induction and measured after 6 hrs by RT-PCR analysis; format: functional, cell-based
J774.A1 [21] = experiment: Anti-inflammatory activity against mouse J774.A1 cells assessed as inhibition of LPS-induced IL-1beta mRNA expression level pretreated for 30 mins followed by LPS-induction and measured after 6 hrs by RT-PCR analysis; format: functional, cell-based
RAW264.7 [22] = experiment: Antiinflammatory activity in LPS-activated mouse RAW264.7 cells assessed as inhibition of ROS production at 10 uM relative to control; format: functional; design: scale not given: the % may be the effect or the level left
BV-2 [23] = experiment: Antiinflammatory activity in LPS-induced mouse BV-2 cells assessed as reduction in COX-2 protein expression by Western blot analysis; format: functional, cell-based

IC50 (RAW264.7 [1]): 6.25 µg/mL (≈ 19.5 µM) | IC50 (RAW264.7 [2]): 6.25 µg/mL (≈ 19.5 µM)
SMILES: O=C1c2c(O)cc(O)cc2O[C@H](c2cc(O)c(O)c(O)c2)[C@H]1O [AMPELOPSIN]

IC50 (BV-2 [3]): 31.4 µM
SMILES: O=C1/C(=C/c2ccc(O)c(O)c2)Oc2cc(O)ccc21 [SULFURETIN]

IC50 (B16-F10): 0.6 µM | IC50 (THP-1): 1.1 µM
SMILES: COc1cc(O)cc(O)c1C(=O)/C=C/c1ccccc1 [CARDAMOMIN]

IC50 (RAW264.7 [4]): 22.7 µM
SMILES: CC(C)=CCC[C@@]1(C)C=Cc2c(ccc(C(=O)/C=C/c3ccc(O)c(O)c3)c2O)O1

SMILES: CC(C)=CCc1c([C@H]2Oc3cc(O)cc(O)c3C(=O)[C@@H]2O)cc2c(c1O)OC(C)(C)C=C2
Activity (RAW264.7 [5]): 42.8%

IC50 (Neutrophil): 6 µM
SMILES: Cc1c(O)cc2c(c1O)C(=O)[C@H](O)[C@@H](c1ccc(O)cc1)O2

SMILES: Oc1cc(O)c2c(c1)O[C@H](c1cc(O)c(O)c(O)c1)CC2
Activity (Peritoneal macrophage [6]): 22.6%

IC50 (BV-2 [7]): 6.78 µM | IC50 (BV-2 [8]): 5.22 µM
SMILES: O=C(/C=C/c1ccc(O)cc1)c1ccc(O)cc1O [ISOLIQUIRITIGENIN]

IC50 (Peritoneal macrophage [9]): 16.9 µM
SMILES: O=c1c(-c2ccc(O)cc2)coc2cc(O)cc(O)c12 [GENISTEIN]

IC50 (RAW264.7 [12]): 21.3 µM | IC50 (J774.A1 [13]): 20.4 µM | IC50 (RAW264.7 [14]): 29.2 µM | IC50 (J774.A1 [15]): 38.2 µM
SMILES: COc1cc(O)c(CC=C(C)C)c2oc(=O)cc(-c3ccccc3)c12
Activity (Rattus norvegicus [10]): 55% | Activity (Rattus norvegicus [11]): 41.8%

SMILES: COc1ccc(-c2cc(=O)c3c(O)cc(OC)c(O)c3o2)cc1
Activity (BV-2 [16]): >50%

IC50 (RAW264.7 [17]): 23.9 µM | IC50 (RAW264.7 [18]): 19.7 µM | IC50 (RAW264.7 [19]): 19.2 µM
SMILES: O=c1c(O)c(-c2cc(O)c(O)c(O)c2)oc2cc(O)cc(O)c12 [MYRICETIN]

IC50 (RAW264.7 [20]): 43.1 µM | IC50 (J774.A1 [21]): 42.8 µM
SMILES: COc1cc(O)c(C(=O)/C=C/c2ccccc2)c(O)c1

IC50 (BV-2 [23]): 0.625 µg/mL (≈ 1.85 µM)
SMILES: C=CC(C)(C)c1cc(/C=C/C(=O)c2ccc(O)cc2)c(OC)cc1O [LICOAGROCHACONE A]
Activity (RAW264.7 [22]): 80%
